Measurements published in ChEMBL document CHEMBL5352495, “Development of novel pyrazole, imidazo[1,2-b]pyrazole, and pyrazolo[1,5-a]pyrimidine derivatives as a new class of COX-2 inhibitors with immunomodulatory potential” (Eur J Med Chem, 2023).

What was measured:
[1] = target: T1, Prostaglandin G/H synthase 2 (Homo sapiens, UniProt P35354)
T1 sequence (P35354 whole entry): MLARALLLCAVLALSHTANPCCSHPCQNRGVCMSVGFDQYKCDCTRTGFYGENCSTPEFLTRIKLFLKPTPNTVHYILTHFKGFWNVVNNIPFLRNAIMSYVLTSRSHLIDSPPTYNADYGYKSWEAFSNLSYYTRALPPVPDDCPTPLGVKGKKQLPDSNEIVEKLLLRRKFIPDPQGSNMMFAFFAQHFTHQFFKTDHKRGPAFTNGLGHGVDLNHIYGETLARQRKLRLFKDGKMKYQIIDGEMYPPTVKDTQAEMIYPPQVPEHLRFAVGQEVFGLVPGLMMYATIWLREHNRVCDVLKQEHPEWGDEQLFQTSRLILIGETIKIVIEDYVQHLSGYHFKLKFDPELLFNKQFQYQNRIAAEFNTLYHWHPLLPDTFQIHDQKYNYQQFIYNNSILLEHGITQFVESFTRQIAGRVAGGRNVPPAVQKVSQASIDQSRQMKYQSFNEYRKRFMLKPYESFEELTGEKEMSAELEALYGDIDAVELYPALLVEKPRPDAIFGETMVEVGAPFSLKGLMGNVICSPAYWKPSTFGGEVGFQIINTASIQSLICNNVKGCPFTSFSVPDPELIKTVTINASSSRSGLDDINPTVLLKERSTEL
Description: Inhibition of COX-2 (unknown origin) incubated for 5 to 10 mins by fluorometric analysis

RAW264.7 [2] = assay: Anti-inflammatory activity against LPS-stimulated mouse RAW264.7 cells assessed as inhibition of TNF alpha expression at 10 ug by qRT-PCR analysis relative to control; type: functional; set-up: scale not given: the % may be the effect or the level left; settings: dose 10 µg
RAW264.7 [3] = assay: Anti-inflammatory activity against LPS-stimulated mouse RAW264.7 cells assessed as inhibition of IL-6 expression at 10 ug by qRT-PCR analysis relative to control; type: functional; set-up: scale not given: the % may be the effect or the level left; settings: dose 10 µg

Compound	IC50 [1]	Activity (RAW264.7 [2])	Activity (RAW264.7 [3])
COC(=O)c1cc(=O)n2nc(N)c(/N=N/c3ccc(O)cc3)c2[nH]1	67.5 µM	–	–
Nc1nn2c(-c3cccs3)cc(-c3cccs3)nc2c1/N=N/c1ccc(O)cc1	3.37 µM	59.2%	70.3%
CC1=Nc2c(/N=N/c3ccc(O)cc3)c(N)nn2C1=O	295 µM	–	–
CC(=O)Nc1nn2c(NC(C)=O)cc(=O)[nH]c2c1/N=N/c1ccc(O)cc1	15.9 µM	–	–
Cc1cc(=O)n2nc(N)c(/N=N/c3ccc(O)cc3)c2[nH]1	5.68 µM	63.1%	65.8%
COc1ccc(-c2nc3c(/N=N/c4ccc(O)cc4)c(N)nn3c(N)c2C#N)cc1	21.1 µM	–	–
Nc1n[nH]c(/N=C2/C(=O)Nc3ccc(S(=O)(=O)N4CCCC4)cc32)c1/N=N/c1ccc(O)cc1	36.5 µM	–	–
CCOC(=O)C1=Nc2c(/N=N/c3ccc(O)cc3)c(N)nn2C1=O	79.3 µM	–	–
CCOC(=O)CC(=O)Nc1[nH]nc(N)c1/N=N/c1ccc(O)cc1	125 µM	–	–
Nc1n[nH]c(N=c2c(=O)c3ccccc3c2=O)c1/N=N/c1ccc(O)cc1	61.4 µM	–	–
N#Cc1c(-c2ccccc2Cl)nc2c(/N=N/c3ccc(O)cc3)c(N)nn2c1N	84.8 µM	–	–
Cc1cc(C)n2nc(N)c(/N=N/c3ccc(O)cc3)c2n1	46.3 µM	–	–
Cc1ccc(-c2cc(C(F)(F)F)nn2-c2ccc(S(N)(=O)=O)cc2)cc1 [CELECOXIB]	–	72.7%	76.8%
